Measurements reported in paper PMC5769417, “Single- and Multiple-Dose Trials to Determine the Pharmacokinetics, Safety, Tolerability, and Sex Effect of Oral Ginsenoside Compound K in Healthy Chinese Volunteers” (Frontiers in Pharmacology, 2018).
Like-named read-outs stand apart in the source and are kept apart here. Marks after values point to notes of the source that are not given here.

Experiments:
Sprague Dawley (SD) rats = conditions: cited from earlier work
[1] = Phase 0 cross-over trial, sex differences in pharmacokinetics; assay type: in vivo, human; conditions: phase 0 trial; for half-life / Tmax: human, plasma, oral; for Tmax: read-out: Tmax, median (range); for Cmax/D, dose-normalized Cmax: in ng·ml⁻¹·mg⁻¹
Experimental: Cmax/D, dose-normalized Cmax value; Tmax, time to maximum plasma concentration; t1/2, terminal half-life; AUClast/D, dose-normalized AUClast value; AUCinf/D, dose-normalized AUCinf value; All values are presented as mean ± SD, except for Tmax, which is expressed as median (range). SD, standard deviation. PK parameters were compared between male and female by independent-sample t-test. A non-parametric test was performed on the Tmax and t1/2. * Compared with Male, p < 0.05. These were the results of phase 0 trial, which was a cross-over clinical trial and included 12 males and 12 females.

CYP2C9 = system: CYP2C9; design: method as in Xiao et al., 2016; conditions: human liver microsomes, human recombinant CYPs; ref Xiao et al., 2016; cited from earlier work
[2] = system: healthy Chinese volunteers; assay: Multiple-dose trial, safety and tolerability (adverse events); assay type: in vivo, human
Experimental: Multiple-dose pharmacokinetics: The multiple-dose trial could be carried out on the condition that a single-dose of CK (25–800 mg) was safe and well tolerated in healthy Chinese volunteers. After breakfast, one of three doses (100, 200, or 400 mg) of CK or placebo were given to 36 eligible subjects randomized to each dose (male:female = 1:1), in which 10 were on active treatment and 2 were on matching placebo. CK were administered as a single dose on day 1 and then as repeated doses for 9 consecutive days (days 7–15 of the trial), and the drug was administered once-daily in the morning after meals.
Safety was evaluated by continuous observation of adverse events (AEs), monitoring of vital signs, ECG, hematology, biochemistry, and urinalysis at baseline, during the trials at the set time points following drug administration, and at follow-up visits after study completion. AEs were classified by their intensity into mild, moderate and severe. Additionally, the AEs were also classified according their relationship to the test drug as positive, probable, possible, remote, or unrelated. The severity of the AEs, as well as their relationship to test drug, was assessed by a qualified physician in the unit. Clinically relevant changes in vital signs, ECG and laboratory parameters were defined as marked abnormalities. ECG were recorded in the semisupine position after a rest of at least 5 min. It is worth noting that all the information, including symptoms and signs after dosing or the medications that the subjects were concomitantly taking must be recorded on the case-report form by investigators. All available data from subjects who received the test drug and placebo were included in the summaries of the safety data and were descriptively analyzed. In addition, the differences between laboratory parameters at baseline and after drug treatment were analyzed to determine whether there were clinical significances.
All the safety data, including vital signs, laboratory indexes and ECG, were descriptively analyzed, and the statistical analyses were conducted to evaluate the effects of the test drug by comparing the differences between before and after drug treatment, between the test drug group and the placebo group and among the different dose groups.

Compound: CC(C)=CCC[C@](C)(OC1O[C@H](CO)[C@@H](O)[C@H](O)[C@H]1O)[C@H]1CC[C@]2(C)[C@@H]1[C@H](O)C[C@@H]1[C@@]3(C)CC[C@H](O)C(C)(C)[C@@H]3CC[C@]12C (stereo partly drawn) [CK, 20-O-beta-D-glucopyranosyl-20(S)-protopanaxadiol]
- dose at which diarrhea symptom occurred (Sprague Dawley (SD) rats; long-term toxicity test, Sprague Dawley (SD) rats): 150 mg/kg
- No observed adverse effect level (NOAEL) (Sprague Dawley (SD) rats; rats): 25.0 mg/kg
- half-life ([1]; Female (n = 12)): 6.7 ± 1.2 h
- Tmax ([1]; Female (n = 12)): 2.8 h
- half-life ([1]; Male (n = 12)): 6.1 ± 1.1 h
- Tmax ([1]; Male (n = 12)): 3.3 h
- AUCinf/D, dose-normalized AUCinf ([1]; Female (n = 12)): 2016.33 ± 1124.90*
- AUClast/D, dose-normalized AUClast ([1]; Female (n = 12)): 1984.33 ± 1809.10*
- Cmax/D, dose-normalized Cmax ([1]; Female (n = 12)): 24.87 ± 8.23*
- AUClast/D, dose-normalized AUClast ([1]; Male (n = 12)): 387.86 ± 174.14
- Cmax/D, dose-normalized Cmax ([1]; Male (n = 12)): 16.44 ± 2.82
- inhibition of CYP2C9 (CYP2C9): moderate inhibitor
- substrate of CYP2C9 (CYP2C9): substrate
- AEs positively relevant to CK [2]: 20 cases
- AEs possibly related to CK [2]: 14 cases
- AEs probably related to CK [2]: 23 cases
- Alkaline phosphatase increased (study drug-related AE) ([2]; 100 mg (n = 10)): 0 number of subjects (%)
- Any AEs (study drug-related) ([2]; 100 mg (n = 10)): 7 (19.4) number of subjects (%)
- Bellyache (study drug-related AE) ([2]; 100 mg (n = 10)): 0 number of subjects (%)
- Blood white cells increased (study drug-related AE) ([2]; 100 mg (n = 10)): 0 number of subjects (%)
- Diarrhea (study drug-related AE) ([2]; 100 mg (n = 10)): 3 (8.3) number of subjects (%)
- Direct bilirubin increased (study drug-related AE) ([2]; 100 mg (n = 10)): 2 (5.6) number of subjects (%)
- Dizziness (study drug-related AE) ([2]; 100 mg (n = 10)): 4 (11.1) number of subjects (%)
- Headache (study drug-related AE) ([2]; 100 mg (n = 10)): 0 number of subjects (%)
- Loss of appetite (study drug-related AE) ([2]; 100 mg (n = 10)): 2 (5.6) number of subjects (%)
- Nausea (study drug-related AE) ([2]; 100 mg (n = 10)): 1 (2.8) number of subjects (%)
- Rash (study drug-related AE) ([2]; 100 mg (n = 10)): 0 number of subjects (%)
- Subcutaneous bleeding (double forearm) (study drug-related AE) ([2]; 100 mg (n = 10)): 0 number of subjects (%)
- Total bilirubin increased (study drug-related AE) ([2]; 100 mg (n = 10)): 0 number of subjects (%)
- Alkaline phosphatase increased (study drug-related AE) ([2]; 200 mg (n = 10)): 1 (2.8) number of subjects (%)
- Any AEs (study drug-related) ([2]; 200 mg (n = 10)): 10 (27.8) number of subjects (%)
- Bellyache (study drug-related AE) ([2]; 200 mg (n = 10)): 4 (11.1) number of subjects (%)
- Blood white cells increased (study drug-related AE) ([2]; 200 mg (n = 10)): 0 number of subjects (%)
- Diarrhea (study drug-related AE) ([2]; 200 mg (n = 10)): 9 (25) number of subjects (%)
- Direct bilirubin increased (study drug-related AE) ([2]; 200 mg (n = 10)): 1 (2.8) number of subjects (%)
- Dizziness (study drug-related AE) ([2]; 200 mg (n = 10)): 1 (2.8) number of subjects (%)
- Headache (study drug-related AE) ([2]; 200 mg (n = 10)): 0 number of subjects (%)
- Loss of appetite (study drug-related AE) ([2]; 200 mg (n = 10)): 0 number of subjects (%)
- Nausea (study drug-related AE) ([2]; 200 mg (n = 10)): 0 number of subjects (%)
- Rash (study drug-related AE) ([2]; 200 mg (n = 10)): 0 number of subjects (%)
- Subcutaneous bleeding (double forearm) (study drug-related AE) ([2]; 200 mg (n = 10)): 0 number of subjects (%)
- Total bilirubin increased (study drug-related AE) ([2]; 200 mg (n = 10)): 1 (2.8) number of subjects (%)
- Alkaline phosphatase increased (study drug-related AE) ([2]; 400 mg (n = 10)): 0 number of subjects (%)
- Any AEs (study drug-related) ([2]; 400 mg (n = 10)): 9 (25) number of subjects (%)
- Bellyache (study drug-related AE) ([2]; 400 mg (n = 10)): 1 (2.8) number of subjects (%)
- Blood white cells increased (study drug-related AE) ([2]; 400 mg (n = 10)): 0 number of subjects (%)
- Diarrhea (study drug-related AE) ([2]; 400 mg (n = 10)): 9 (25) number of subjects (%)
- Direct bilirubin increased (study drug-related AE) ([2]; 400 mg (n = 10)): 5 (13.9) number of subjects (%)
- Dizziness (study drug-related AE) ([2]; 400 mg (n = 10)): 0 number of subjects (%)
- Headache (study drug-related AE) ([2]; 400 mg (n = 10)): 0 number of subjects (%)
- Loss of appetite (study drug-related AE) ([2]; 400 mg (n = 10)): 0 number of subjects (%)
- Nausea (study drug-related AE) ([2]; 400 mg (n = 10)): 0 number of subjects (%)
- Rash (study drug-related AE) ([2]; 400 mg (n = 10)): 0 number of subjects (%)
- Subcutaneous bleeding (double forearm) (study drug-related AE) ([2]; 400 mg (n = 10)): 1 (2.8) number of subjects (%)
- Total bilirubin increased (study drug-related AE) ([2]; 400 mg (n = 10)): 3 (8.3) number of subjects (%)
